In PMC4511415, “Inhibition of ANO1/TMEM16A Chloride Channel by Idebenone and Its Cytotoxicity to Cancer Cell Lines” (PLoS ONE, 2015):

Target: T1, ANO1 (anoctamin 1, TMEM16A) (Homo sapiens, UniProt Q5XXA6)
T1 construct: human ANO1(abc)
T1 sequence (Q5XXA6 1-986): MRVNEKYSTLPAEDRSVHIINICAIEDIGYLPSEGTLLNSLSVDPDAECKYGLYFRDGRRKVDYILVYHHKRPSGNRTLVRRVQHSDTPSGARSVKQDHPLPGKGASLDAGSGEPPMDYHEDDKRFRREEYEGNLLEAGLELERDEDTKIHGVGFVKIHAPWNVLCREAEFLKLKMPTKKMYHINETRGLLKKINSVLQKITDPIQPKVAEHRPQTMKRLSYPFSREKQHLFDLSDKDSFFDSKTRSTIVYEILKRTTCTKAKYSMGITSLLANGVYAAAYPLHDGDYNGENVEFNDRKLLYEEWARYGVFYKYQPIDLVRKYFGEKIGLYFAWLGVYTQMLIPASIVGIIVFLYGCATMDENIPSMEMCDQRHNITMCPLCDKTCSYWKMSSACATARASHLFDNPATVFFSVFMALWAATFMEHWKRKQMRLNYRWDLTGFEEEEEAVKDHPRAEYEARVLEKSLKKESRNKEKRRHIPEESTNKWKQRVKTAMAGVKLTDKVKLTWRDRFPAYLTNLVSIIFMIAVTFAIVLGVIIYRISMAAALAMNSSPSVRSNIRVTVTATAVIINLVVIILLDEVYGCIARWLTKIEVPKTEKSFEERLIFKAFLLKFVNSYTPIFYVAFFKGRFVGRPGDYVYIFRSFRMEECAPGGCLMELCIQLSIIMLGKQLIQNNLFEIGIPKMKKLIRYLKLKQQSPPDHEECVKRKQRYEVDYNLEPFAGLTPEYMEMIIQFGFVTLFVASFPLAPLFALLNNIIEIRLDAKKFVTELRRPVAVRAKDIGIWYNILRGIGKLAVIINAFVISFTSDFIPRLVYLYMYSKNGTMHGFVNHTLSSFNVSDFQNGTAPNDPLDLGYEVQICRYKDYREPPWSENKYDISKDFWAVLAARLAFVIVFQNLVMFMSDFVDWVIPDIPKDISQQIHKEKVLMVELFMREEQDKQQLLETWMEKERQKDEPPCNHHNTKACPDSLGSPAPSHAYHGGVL
Assay: apical membrane current (Ussing chamber) in FRT-ANO1 cells; whole-cell patch clamp; YFP iodide influx
Format: cell-based

For `COC1=C(OC)C(=O)C(CCCCCCCCCCO)=C(C)C1=O` [idebenone, 2,3-dimethoxy-5-methyl-6-(10-hydroxydecyl)-21,4-benzoquinone], the IC50 was 9.2 µM.
